Measurements as given in patent US20240285557A1, “PHARMACEUTICAL COMPOSITION COMPRISING LIPASE INHIBITOR FOR TREATMENT OR TREATMENT OF RNA VIRAL INFECTIONS” (priority 2021, published 2024).
Entries after “also recorded” stand apart in the source; their conditions may differ.

Assays:
[1] = test system: SARS-COV-2 strain KCDC03; format: cell-based
[2] = test system: influenza A virus PR8 strain; format: cell-based
[3] = test system: spike (S) protein of SARS-COV-2; test: Palmitoylation assay in SARS-CoV-2-infected Vero E6 cells; format: cell-based; details: Vero E6, 20 μM; vs vehicle
Method: CO2 incubator. The cells were then washed with phosphate-buffered saline, and DMEM supplemented with 1 μg/ml TPCK-treated trypsin, 100 u/ml penicillin, and 100 ug/ml streptomycin was added. Afterward, the cells were incubated in a 37° C. CO2 incubator for 18 hours. […] Following an additional 18-hour incubation, the cells were washed with phosphate-buffered saline, treated with trypsin, harvested, and centrifuged. The palmitoylation assay (Badrilla, Leeds, UK) was then conducted on these cells according to the manufacturer's instructions.
The cell pellet was washed with phosphate-buffered saline and then mixed with Buffer A containing Thiol Blocking Reagent. The mixture was incubated at 40° C. for 4 hours with continuous stirring. Subsequently, 70% acetone was added to precipitate the proteins, and the supernatant was discarded. The acetone addition process was repeated five times. The pellet was thoroughly washed, followed by elution in a binding buffer at 40° C. for 3 hours. A portion of the eluted supernatant was mixed with Laemmli Sample Buffer and used as an input control for total protein, while the remainder underwent a purification process for palmitoylated proteins.
Initially, the total protein supernatant was mixed with CAPTUREome™ Capture Resin and Thio Cleavage Reagent, and the mixture was incubated on a rotary mixer at 20° C. for 3 hours. […]

[4] = test system: influenza A virus hemagglutinin (H) and M2 proteins; format: cell-based; details: A549, 20 μM; vs vehicle
[5] = test system: A549 cells
Method: (§1) To determine the half-maximal cytotoxic concentration (CC50) of the lipase inhibitors atglistatin and CAY10499, Vero E6, A549, HRT-18G, MA104, MARC-145, and LLC-PK cells were prepared in monolayers in 96-well plates.
(§2) The cells were treated with the drugs for 24 hours, and the culture media was removed before addition of 200 μL of 3-(4,5-dimethylthiazol-2-yl)-2,5-diphenyl tetrazolium bromide (MTT) solution to each well. The plates were then incubated for 4 hours in a 5% CO2 incubator at 36° C. Subsequently, 150 μL of DMSO solution was added to each well and incubated at 20° C. The optical density (OD) was measured at 570 nm wavelength using an enzyme-linked immunosorbent assay (ELISA) reader.

[6] = test system: HRT18G cells
Method: as §1, §2

[7] = test system: LLC-PK cells
Method: as §1, §2

[8] = test system: Porcine epidemic diarrhea coronavirus (QIAP1401); test: organism not typed; details: Vero C1008, 18 h
[9] = test system: Influenza A virus (H1N1) (PR8); test: microbe, parasite or virus in culture; details: H1N1|PR8, A549, 12 h, drug added after 12 hours, additional 12 hours
[10] = test system: Bovine coronavirus (KWD20); test: microbe, parasite or virus in culture; details: Betacoronavirus 1, 18 h
[11] = test system: Species A Rotavirus (NCDV); test: microbe, parasite or virus in culture; details: MA104, in Bos taurus, 12 h
[12] = test system: Porcine respiratory reproductive syndrome virus (LMY); test: microbe, parasite or virus in culture; details: Porcine reproductive and respiratory syndrome virus, MARC145, in Sus scrofa, 18 h
[13] = test system: Porcine sapovirus (Cowden); test: microbe, parasite or virus in culture; details: Sapporo virus, LLCPK, 18 h
[14] = MTT half-maximal cytotoxic concentration (CC50); details: dog
[15] = MTT half-maximal cytotoxic concentration (CC50); details: rhesus monkey
Method: as §1, §2

[16] = MTT half-maximal cytotoxic concentration (CC50); details: pig
Method: as §1, §2

[17] = CC50 range over the cell line panel
Method: as §1, §2

[18] = test system: SARS-COV-2 KCDC03 strain; test: SARS-CoV-2-infected hamsters treated with lipase inhibitor; details: for alleviation (reduction) of pneumonia severity: 80 mg kg^−1 day^−1 intraperitoneally for 4.5 days; for pneumonia severity: 20, 40, 80 mg kg^−1 day^−1, dose-dependent; for production of free fatty acids and glycerol in lung tissue: 20 to 80 mg kg^−1 day^−1; for number of viral genes (viral genome copy number) in lung tissue / progeny viruses in lung tissue: fifth day post-infection; for weight loss: five days observation
[19] = test system: SARS COV-2 KCDC03 strain; format: cell-based; details: SARS-CoV-2 spike protein, Vero E6; 1, 10, 20 μM
[20] = test system: influenza A virus PR8 strain; format: cell-based; details: influenza A virus M2 protein, A549; 1, 10, 20 μM
[21] = test system: bovine coronavirus KWD20 strain; format: cell-based; details: bovine coronavirus spike protein, HRT-18G; 1, 10, 20 μM
[22] = test system: porcine epidemic diarrhea coronavirus QIAP1401 strain; test: Viral antigen expression (Western blot, immunofluorescence) in infected Vero E6 cells; format: cell-based; details: PEDV nucleocapsid protein, 1, 10, 20 μM
Method: The virus was incubated at 37° C. for 18 hours, after which the medium was changed with a medium containing DABPU-EM or DABPU-DE at a final concentration of 1 μM, […], or 20 μM. Following an additional 18 hours of incubation, the Vero E6 cells in 6-well plates were washed with phosphate-buffered saline, collected by scaping, and centrifuged. The cell pellet thus obtained was subjected to Western blot analysis. The intensity of the porcine epidemic diarrhea coronavirus nucleocapsid protein detected was assessed by comparison with the relative positive signals of the internal control beta-actin using the ImageJ software. Separately, the Vero E6 cells in 8-well chambers were washed with phosphate-buffered saline, fixed with 4% paraformaldehyde, and then subjected to immunofluorescence staining for porcine epidemic diarrhea coronavirus nucleocapsid protein in the same manner as described in the foregoing.

[23] = test system: bovine species A rotavirus NCDV strain; test: Viral antigen expression (Western blot, immunofluorescence) in infected MA104 cells; format: cell-based; details: rotavirus VP6 protein, 1, 10, 20 μM
[24] = test system: MA104 cells; test: MTT half-maximal cytotoxic concentration (CC50); details: MA104; drugs for 24 hours, MTT
Method: as §1, §2

[25] = listed as atglistatin (DABPU-DM)
[26] = vs untreated virus-inoculated group

Row | Compound | free fatty acids and glycerol in the cytoplasm [1] | number of lipid droplets [1] | progeny virus count [1] | viral gene count [1] | virus spike protein synthesis [1] | levels of free fatty acids and glycerol in the cytoplasm [2] | number of lipid droplets [2] | production of virus M2 protein [2] | progeny virus titer [2] | viral genome copy [2] | palmitoylation of the spike (S) protein of SARS-COV-2 [3] | palmitoylation of both hemagglutinin (H) and M2 proteins [4] | IC50 [8] | IC50 [9] | IC50 [10] | IC50 [11] | IC50 [12] | IC50 [13] | CC50 at 24 h [15] | CC50 at 24 h [16] | other results
1 | COc1nn(-c2ccc(NC(=O)OCc3ccccc3)c(C)c2)c(=O)o1 [CAY10499] | significant decrease | did not decrease significantly | significant decrease | significant decrease | significant decrease | significant decrease | did not significantly decrease | significant decrease | significant decrease | significant decrease | significantly reduced | significantly decreased |  |  |  |  |  |  |  |  | CC50 [5]: 106 µM; CC50 [6]: 104 µM; CC50 [7]: 109 µM
2 | CN(C)C(=O)Nc1cccc(-c2ccc(N(C)C)cc2)c1 [Atglistatin, 3-(4′-(dimethylamino)-(1,1′-biphenyl)-3-yl)-1,1-dimethylurea] | significant decrease | did not decrease significantly | significant decrease | significant decrease | significant decrease | significant decrease | did not significantly decrease | significant decrease | significant decrease | significant decrease | significantly reduced | significantly decreased | 1.96 µM | 0.82 µM | 1.2 µM | 6.7 µM | 2.53 µM | 3.11 µM | 214 µM | 224 µM | CC50 at 24 h [14]: 269 µM; CC50 at 24 h [17]: 182 to 269 µM; alleviation (reduction) of pneumonia severity [18]: 73%; alleviation (reduction) of pneumonia severity [18, 25]: 70%; pneumonia severity [18]: alleviating pneumonia severity in a dose-dependent manner; production of free fatty acids and glycerol in lung tissue [18]: significantly reducing; production of free fatty acids and glycerol in lung tissue [18, 25]: decreasing; number of viral genes (viral genome copy number) in lung tissue [18]: significant decrease; progeny viruses in lung tissue [18]: significant decrease; number of viral genes (viral genome copy number) in lung tissue [18, 25]: significantly reduced; progeny viruses in lung tissue [18, 25]: significantly reduced; weight loss [18]: ceasing weight loss; weight loss [18, 25]: blocking weight loss; level of viral antigens in the alveolar epithelial cells [18, 26]: significant decrease; lung lesions, including interstitial pneumonia, and number of virus-positive cells [18, 26]: alleviating and reducing; number of lipid droplets in alveolar epithelial cells [18, 26]: did not decrease significantly
3 | CCN(C)C(=O)Nc1cccc(-c2ccc(N(C)C)cc2)c1 [DABPU-EM, 3-(4′-(dimethylamino)-(1,1′-biphenyl)-3-yl)-1-ethyl-1-methylurea] |  |  |  |  |  |  |  |  |  |  |  |  | 1.94 µM | 1.63 µM | 3.44 µM | 7.08 µM | 2.7 µM | 3.7 µM | 223 µM | 231 µM | expression levels of the viral antigen in infected cells [19]: inhibitory activity; expression levels of the viral antigen in infected cells [20]: inhibitory activity; expression levels of the viral antigen in infected cells [21]: inhibitory activity; expression levels of the viral antigen in infected cells [22]: inhibitory activity; expression levels of the viral antigen in infected cells [23]: inhibitory activity; CC50 at 24 h ([17]; human, African green monkey, dog, pig): 186 to 231 µM
4 | CCN(CC)C(=O)Nc1cccc(-c2ccc(N(C)C)cc2)c1 [DABPU-DE] |  |  |  |  |  |  |  |  |  |  |  |  |  |  |  |  |  |  |  |  | expression levels of the viral antigen in infected cells [19]: higher inhibitory effects of DABPU-DE than DABPU-EM; expression levels of the viral antigen in infected cells [20]: higher inhibitory effects of DABPU-DE than DABPU-EM; expression levels of the viral antigen in infected cells [21]: higher inhibitory effects of DABPU-DE than DABPU-EM; expression levels of the viral antigen in infected cells [22]: higher inhibitory effects of DABPU-DE than DABPU-EM; expression levels of the viral antigen in infected cells [23]: higher inhibitory effects of DABPU-DE than DABPU-EM; CC50 [24]: 209 µM; alleviation (reduction) of pneumonia severity [18]: 75%; pneumonia severity [18]: alleviating pneumonia severity in a dose-dependent manner; production of free fatty acids and glycerol in lung tissue [18]: decreasing; also recorded: lower levels; number of viral genes (viral genome copy number) in lung tissue [18]: significantly reduced; progeny viruses in lung tissue [18]: significantly reduced; weight loss [18]: blocking weight loss
